Assay results as given in PubChem BioAssay AID2060618 (Molecular Pharmacology Branch, DTP, NCI, 2025).

Test system: 454973-116-R2-J3-PDC spheroids, percent test/control viability
Experiment: Anticancer human tumor 454973-116-R2-J3-PDC patient-derived pancreatic carcinoma cell line growth inhibition [CLK]
Settings: spheroids with HUVEC and MSC; for IC50: curve of first compound; for viability, T/C: stronger effect = lower value
Procedure, shortened: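 Patient-derived tumor cells grown as complex spheroids with HUVEC endothelial cells and mesenchymal stem cells, treated with drug combinations. Concentrations descend in half-log steps from near clinical Cmax, or from 10 microM if Cmax unknown.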

[1] = second compound 0.0316 µM, first compound 0.0316 µM
[2] = second compound 0.0316 µM, first compound 0.1 µM
[3] = second compound 0.0316 µM, first compound 0.316 µM
[4] = second compound 0.0316 µM, first compound 1 µM
[5] = second compound 0.0316 µM, first compound 3.16 µM
[6] = second compound 0.0316 µM, first compound 10 µM
[7] = second compound 0.1 µM, first compound 0.0316 µM
[8] = second compound 0.1 µM, first compound 0.1 µM
[9] = second compound 0.1 µM, first compound 0.316 µM
[10] = second compound 0.1 µM, first compound 1 µM
[11] = second compound 0.1 µM, first compound 3.16 µM
[12] = second compound 0.1 µM, first compound 10 µM
[13] = second compound 0.316 µM, first compound 0.0316 µM
[14] = second compound 0.316 µM, first compound 0.1 µM
[15] = second compound 0.316 µM, first compound 0.316 µM
[16] = second compound 0.316 µM, first compound 1 µM
[17] = second compound 0.316 µM, first compound 3.16 µM
[18] = second compound 0.316 µM, first compound 10 µM
[19] = second compound 1 µM, first compound 0.0316 µM
[20] = second compound 1 µM, first compound 0.1 µM
[21] = second compound 1 µM, first compound 0.316 µM
[22] = second compound 1 µM, first compound 1 µM
[23] = second compound 1 µM, first compound 3.16 µM
[24] = second compound 1 µM, first compound 10 µM
[25] = second compound 3.16 µM, first compound 0.0316 µM
[26] = second compound 3.16 µM, first compound 0.1 µM
[27] = second compound 3.16 µM, first compound 0.316 µM
[28] = second compound 3.16 µM, first compound 1 µM
[29] = second compound 3.16 µM, first compound 3.16 µM
[30] = second compound 3.16 µM, first compound 10 µM
[31] = second compound 10 µM, first compound 0.0316 µM
[32] = second compound 10 µM, first compound 0.1 µM
[33] = second compound 10 µM, first compound 0.316 µM
[34] = second compound 10 µM, first compound 1 µM
[35] = second compound 10 µM, first compound 3.16 µM
[36] = second compound 10 µM, first compound 10 µM
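Further: spheroids exposed to compounds for 7 days before readout.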

In the case of C=C(F)C(=O)N1CCN(c2nc(OCC3CCCN3C)nc3c2CCN(c2cccc4cccc(Cl)c24)C3)CC1CC#N (centres undefined) + CNC(=O)c1ccc(Nc2nc(OC3CCCC3)c3c(-c4ccc5nc(C)oc5c4)c[nH]c3n2)c(OC)c1, the IC50 (second compound 0.0316 µM) is reported as 5840 nM, the IC50 (second compound 0.1 µM) is reported as 4820 nM and the IC50 (second compound 0.316 µM) is reported as < 31.6 nM. The IC50 (second compound 1 µM) was < 31.6 nM, the IC50 (second compound 3.16 µM) was < 31.6 nM and the IC50 (second compound 10 µM) was < 31.6 nM. The viability, T/C [1] was 111%, the viability, T/C [2] was 114% and the viability, T/C [3] was 109%. The viability, T/C [4] was 109%, the viability, T/C [5] was 106% and the viability, T/C [6] was 1.38%. It also gave a viability, T/C [7] of 96.9%, a viability, T/C [8] of 85% and a viability, T/C [9] of 75.7%. It also gave a viability, T/C [10] of 89.8%, a viability, T/C [11] of 78.3% and a viability, T/C [12] of 0.85%. The viability, T/C [13] was 39.6%, the viability, T/C [14] was 36.1% and the viability, T/C [15] was 38.2%. It also gave a viability, T/C [16] of 37.2%, a viability, T/C [17] of 39.5% and a viability, T/C [18] of 0.19%. For the same compound, the viability, T/C [19] was 35.2%, the viability, T/C [20] was 27.1% and the viability, T/C [21] was 30.4%. For the same compound, the viability, T/C [22] was 36.5%, the viability, T/C [23] was 31.1% and the viability, T/C [24] was 0.5%. The viability, T/C [25] was 29.8%, the viability, T/C [26] was 27.9% and the viability, T/C [27] was 28.5%. For the same compound, the viability, T/C [28] was 34.6%, the viability, T/C [29] was 27.2% and the viability, T/C [30] was 0.29%. For the same compound, the viability, T/C [31] was 28.2%, the viability, T/C [32] was 24.4% and the viability, T/C [33] was 26.5%. For the same compound, the viability, T/C [34] was 25.3%, the viability, T/C [35] was 19.2% and the viability, T/C [36] was 0.25%.
With C=CC(=O)N1CCN(c2nc(=O)n(-c3c(C)ccnc3C(C)C)c3nc(-c4c(O)cccc4F)c(F)cc23)C(C)C1 (centres undefined) + CNC(=O)c1ccc(Nc2nc(OC3CCCC3)c3c(-c4ccc5nc(C)oc5c4)c[nH]c3n2)c(OC)c1 the IC50 (second compound 0.0316 µM) was > 10000 nM, the IC50 (second compound 0.1 µM) was > 10000 nM and the IC50 (second compound 0.316 µM) was 62.5 nM. For the same compound, the IC50 (second compound 1 µM) was < 31.6 nM, the IC50 (second compound 3.16 µM) was < 31.6 nM and the IC50 (second compound 10 µM) was < 31.6 nM. It also gave a viability, T/C [1] of 103%, a viability, T/C [2] of 113% and a viability, T/C [3] of 118%. It also gave a viability, T/C [4] of 124%, a viability, T/C [5] of 122% and a viability, T/C [6] of 115%. It also gave a viability, T/C [7] of 107%, a viability, T/C [8] of 113% and a viability, T/C [9] of 101%. It also gave a viability, T/C [10] of 119%, a viability, T/C [11] of 113% and a viability, T/C [12] of 120%. It also gave a viability, T/C [13] of 52%, a viability, T/C [14] of 48.1% and a viability, T/C [15] of 48%. It also gave a viability, T/C [16] of 47%, a viability, T/C [17] of 47.5% and a viability, T/C [18] of 45%. The viability, T/C [19] was 28.5%, the viability, T/C [20] was 30.5% and the viability, T/C [21] was 34%. The viability, T/C [22] was 32.6%, the viability, T/C [23] was 37.3% and the viability, T/C [24] was 31.4%. For the same compound, the viability, T/C [25] was 32.8%, the viability, T/C [26] was 24% and the viability, T/C [27] was 30.9%. The viability, T/C [28] was 30.9%, the viability, T/C [29] was 28.5% and the viability, T/C [30] was 25.4%. The viability, T/C [31] was 25.2%, the viability, T/C [32] was 25.6% and the viability, T/C [33] was 25.6%. The viability, T/C [34] was 26.1%, the viability, T/C [35] was 30.2% and the viability, T/C [36] was 23.5%.
